Measured values published in US9499519B2, “Fused pyrimidine compounds and use thereof” (Medivation Technologies, Inc., priority 2012, dated 2016).

Tests used:
Assay type in all cases: biochemical
c-Met = c-Met (Homo sapiens, UniProt P08581); assay: HotSpot kinase assay: c-Met; conditions: 100 nM compound, read-out: % Enzyme Inhibition @ 100 nM c-MET
Procedure: (§1) Kinase assays were performed using additional compounds against a panel of 4 kinases: AXL; c-Met; c-Mer; and Trk C. Each compound was tested at a concentration of 0.1 M in single duplicate mode against the 4 kinases. Compounds were prepared as 10 mM stock solutions in DMSO prior to use in the assay. […] IC50 values and curve fits were obtained using Prism (GraphPad Software).
(§2) The screening was performed using the “HotSpot” assay platform. The assay measures the conversion of a peptide substrate to ^33P-labelled phosphorylated product. Briefly, specific kinase/substrate pairs along with required cofactors were prepared in reaction buffer. Specifically, the substrate was prepared in reaction buffer (20 mM Hepes, pH 7.5; 10 mM MgCl2; 1 mM EGTA; 0.02% Brij35; 0.02 mg/mL BSA; 0.1 mM Na3VO4; 2 mM DTT; 1% DMSO), followed by delivery of any required cofactor to the resulting substrate solution. The corresponding kinase was delivered into the substrate solution and the reaction mixture was mixed gently. Compound was delivered into the reaction mixture, followed 15-20 minutes later by addition of a mixture of ATP (Sigma, St. Louis Mo.) and ^33P ATP (specific activity 0.01 μCi/μL final; Perkin Elmer, Waltham, Mass.) to a final concentration of 10 μM-30 μM to initiate the reaction. […] The percent of enzyme inhibition was calculated based on the percent of remaining kinase activity.

c-Mer = biological target: T1, c-Mer (Homo sapiens, UniProt Q12866); assay: HotSpot kinase assay: c-Mer; conditions: 100 nM compound, read-out: % Enzyme Inhibition @ 100 nM c-MER
T1 sequence (Q12866 21-999): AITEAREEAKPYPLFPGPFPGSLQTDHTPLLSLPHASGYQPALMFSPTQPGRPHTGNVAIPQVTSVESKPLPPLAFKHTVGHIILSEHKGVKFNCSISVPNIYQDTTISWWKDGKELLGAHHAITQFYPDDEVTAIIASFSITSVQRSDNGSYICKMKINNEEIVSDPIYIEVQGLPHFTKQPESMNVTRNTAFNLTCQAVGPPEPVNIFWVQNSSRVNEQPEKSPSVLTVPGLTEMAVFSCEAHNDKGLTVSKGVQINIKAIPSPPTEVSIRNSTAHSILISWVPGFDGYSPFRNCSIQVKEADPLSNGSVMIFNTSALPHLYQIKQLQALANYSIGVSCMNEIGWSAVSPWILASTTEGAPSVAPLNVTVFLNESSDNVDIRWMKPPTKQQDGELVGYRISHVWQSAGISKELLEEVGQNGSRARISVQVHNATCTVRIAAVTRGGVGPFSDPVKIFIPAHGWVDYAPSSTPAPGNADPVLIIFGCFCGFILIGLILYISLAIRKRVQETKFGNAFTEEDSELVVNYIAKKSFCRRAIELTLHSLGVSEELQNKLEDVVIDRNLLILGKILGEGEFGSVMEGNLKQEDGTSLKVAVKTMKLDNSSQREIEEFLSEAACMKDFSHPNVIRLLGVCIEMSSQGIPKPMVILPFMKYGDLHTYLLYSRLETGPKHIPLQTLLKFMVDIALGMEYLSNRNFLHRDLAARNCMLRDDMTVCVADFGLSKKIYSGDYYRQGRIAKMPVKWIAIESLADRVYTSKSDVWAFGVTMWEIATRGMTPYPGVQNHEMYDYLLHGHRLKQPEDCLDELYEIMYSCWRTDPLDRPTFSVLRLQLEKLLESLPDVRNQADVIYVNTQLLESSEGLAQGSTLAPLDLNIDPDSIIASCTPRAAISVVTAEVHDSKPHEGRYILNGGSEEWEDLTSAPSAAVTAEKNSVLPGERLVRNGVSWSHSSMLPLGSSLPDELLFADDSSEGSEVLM
Procedure: as §1, §2

Trk C = Trk C (Homo sapiens, UniProt Q16288); assay: HotSpot kinase assay: Trk C; conditions: 100 nM compound, HotSpot; for inhibition at 0.1 µM: read-out: % Enzyme Inhibition @ 100 nM Trk C
Procedure: (§3) Each compound was tested at a concentration of 0.1 μM in single duplicate mode against the 3 kinases. Compounds were prepared as 10 mM stock solutions in DMSO prior to use in the assay. […] IC50 values and curve fits were obtained using Prism (GraphPad Software).
as §2, §1

AXL = biological target: T2, AXL (Homo sapiens, UniProt P30530); assay: HotSpot kinase assay: AXL; conditions: 100 nM compound, read-out: % Enzyme Inhibition @ 100 nM AXL
T2 sequence (P30530 26-894): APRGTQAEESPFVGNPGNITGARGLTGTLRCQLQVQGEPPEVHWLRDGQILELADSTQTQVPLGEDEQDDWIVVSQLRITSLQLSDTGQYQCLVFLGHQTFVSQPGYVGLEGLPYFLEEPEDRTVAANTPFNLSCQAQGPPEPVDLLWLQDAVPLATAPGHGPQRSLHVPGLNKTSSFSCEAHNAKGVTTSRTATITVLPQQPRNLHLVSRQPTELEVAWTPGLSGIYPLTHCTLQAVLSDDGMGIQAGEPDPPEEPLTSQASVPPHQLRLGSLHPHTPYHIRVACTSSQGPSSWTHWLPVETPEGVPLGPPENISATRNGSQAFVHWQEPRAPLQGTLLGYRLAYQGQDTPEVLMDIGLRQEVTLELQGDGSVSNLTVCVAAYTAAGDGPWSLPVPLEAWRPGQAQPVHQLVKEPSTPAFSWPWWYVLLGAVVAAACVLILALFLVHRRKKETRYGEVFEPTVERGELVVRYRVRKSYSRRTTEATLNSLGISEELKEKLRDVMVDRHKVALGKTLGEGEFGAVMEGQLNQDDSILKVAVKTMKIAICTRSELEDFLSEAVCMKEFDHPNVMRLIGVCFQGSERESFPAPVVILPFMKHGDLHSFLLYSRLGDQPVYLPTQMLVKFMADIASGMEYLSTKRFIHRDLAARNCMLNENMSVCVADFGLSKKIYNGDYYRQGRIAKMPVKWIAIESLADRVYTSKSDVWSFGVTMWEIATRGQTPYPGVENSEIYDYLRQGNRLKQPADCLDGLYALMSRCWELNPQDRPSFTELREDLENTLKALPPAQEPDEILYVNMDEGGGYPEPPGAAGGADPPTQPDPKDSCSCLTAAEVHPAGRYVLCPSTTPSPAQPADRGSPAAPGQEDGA
Procedure: as §1, §2

Trk A = Trk A (Homo sapiens, UniProt P04629); assay: HotSpot kinase assay: Trk A; conditions: 100 nM compound; for inhibition at 0.1 µM: read-out: % Enzyme Inhibition @ 100 nM Trk A
Procedure: as §1, with “of 3” for “of 4”, “kinases: Trk A; Trk B;” for “kinases: AXL; c-Met; c-Mer;”, “0.1 μM” for “0.1 M”, “the 3” for “the 4”, “Software). […]” for “Software).”
The screening was performed using the “HotSpot” assay platform. The assay measures the conversion of a peptide substrate to ^33P-labelled phosphorylated product. Briefly, specific kinase/substrate pairs along with required cofactors were prepared in reaction buffer. Specifically, the substrate was prepared in reaction buffer (20 mM Hepes, pH 7.5; 10 mM MgCl2; 1 mM EGTA; 0.02% Brij35; 0.02 mg/mL BSA; 0.1 mM Na3VO4; 2 mM DTT; 1% DMSO), followed by delivery of any required cofactor to the resulting substrate solution. The corresponding kinase was delivered into the substrate solution and the reaction mixture was mixed gently. Compound was delivered into the reaction mixture, followed 15-20 minutes later by addition of a mixture of ATP (Sigma, St. Louis Mo.) and ^33P ATP (specific activity 0.01 μCi/μL final; Perkin Elmer, Waltham, Mass.) to a final concentration of 10 μM-30 μM to initiate the reaction. Reactions were carried out at room temperature for 120 minutes, followed by spotting of the reactions onto P81 ion exchange filter paper (Whatman #3698-915; Whatman Inc., Piscataway, N.J.). Unbound phosphate was removed by extensive washing of filters in 0.75% phosphoric acid. […] The percent of enzyme inhibition was calculated based on the percent of remaining kinase activity.

IR = biological target: T3, IR (Homo sapiens, UniProt P06213); assay: In vitro IR enzymatic assay (ADP-Glo kinase assay); conditions: activated IR, in duplicate, read-out: inhibition of binding
T3 construct: purchased Millipore 14-803

Trk B = Trk B (Homo sapiens, UniProt Q16620); assay: HotSpot kinase assay: Trk B; conditions: 100 nM compound; for inhibition at 0.1 µM: read-out: % Enzyme Inhibition @ 100 nM Trk B
Procedure: as §3, §2

IGF-1R = biological target: T4, IGF-1R (Homo sapiens, UniProt P08069); assay: In vitro IGF-1R enzymatic assay (ADP-Glo kinase assay); conditions: activated IGF-1R, 1 μM, in duplicate; read-out: inhibition of binding
T4 construct: purchased Millipore 14-802
Procedure: IC50 values of the compounds of the invention against IGF-1R and IR were measured in vitro using an ADP-Glo kinase assay Kit (Promega). […] Kinase reactions in both assays were conducted at 30° C. for 20 min with increasing concentrations of compounds of the invention.
Additional compounds of the invention were screened against activated IGF-1R.

T4 sequence (P08069 31-1367): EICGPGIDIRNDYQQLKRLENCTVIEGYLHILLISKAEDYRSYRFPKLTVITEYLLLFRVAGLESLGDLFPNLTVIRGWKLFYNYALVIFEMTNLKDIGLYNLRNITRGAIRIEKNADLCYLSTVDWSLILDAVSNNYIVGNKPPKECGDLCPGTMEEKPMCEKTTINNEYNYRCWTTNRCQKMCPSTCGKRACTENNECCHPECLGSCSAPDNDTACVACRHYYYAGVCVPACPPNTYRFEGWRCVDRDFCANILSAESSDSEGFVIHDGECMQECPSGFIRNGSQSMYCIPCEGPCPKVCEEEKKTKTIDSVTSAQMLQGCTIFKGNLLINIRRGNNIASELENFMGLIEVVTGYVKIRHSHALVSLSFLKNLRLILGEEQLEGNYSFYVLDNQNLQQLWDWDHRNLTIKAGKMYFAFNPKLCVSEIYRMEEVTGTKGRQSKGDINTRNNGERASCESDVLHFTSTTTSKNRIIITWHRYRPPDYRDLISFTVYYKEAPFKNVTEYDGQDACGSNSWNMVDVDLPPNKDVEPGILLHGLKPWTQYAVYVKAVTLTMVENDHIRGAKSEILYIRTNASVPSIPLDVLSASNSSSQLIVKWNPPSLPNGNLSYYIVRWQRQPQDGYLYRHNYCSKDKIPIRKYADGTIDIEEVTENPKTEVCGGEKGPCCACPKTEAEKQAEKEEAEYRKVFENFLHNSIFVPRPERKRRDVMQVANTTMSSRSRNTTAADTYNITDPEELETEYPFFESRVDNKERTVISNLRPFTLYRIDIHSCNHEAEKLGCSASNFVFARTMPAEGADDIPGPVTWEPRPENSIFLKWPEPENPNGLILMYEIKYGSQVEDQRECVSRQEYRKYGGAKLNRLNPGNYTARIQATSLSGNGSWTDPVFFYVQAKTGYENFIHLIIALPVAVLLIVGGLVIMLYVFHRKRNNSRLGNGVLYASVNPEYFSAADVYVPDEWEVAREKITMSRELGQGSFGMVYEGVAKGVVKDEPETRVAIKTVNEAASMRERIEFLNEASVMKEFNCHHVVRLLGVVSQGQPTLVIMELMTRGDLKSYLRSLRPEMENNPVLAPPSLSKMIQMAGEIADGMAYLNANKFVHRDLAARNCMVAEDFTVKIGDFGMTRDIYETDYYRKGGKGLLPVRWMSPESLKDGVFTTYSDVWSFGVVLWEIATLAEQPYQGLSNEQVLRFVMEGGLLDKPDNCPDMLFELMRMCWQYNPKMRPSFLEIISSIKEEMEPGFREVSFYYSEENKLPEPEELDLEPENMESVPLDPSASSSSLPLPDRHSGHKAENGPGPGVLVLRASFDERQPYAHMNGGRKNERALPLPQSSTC
Trk C, sequence (Q16288 32-839): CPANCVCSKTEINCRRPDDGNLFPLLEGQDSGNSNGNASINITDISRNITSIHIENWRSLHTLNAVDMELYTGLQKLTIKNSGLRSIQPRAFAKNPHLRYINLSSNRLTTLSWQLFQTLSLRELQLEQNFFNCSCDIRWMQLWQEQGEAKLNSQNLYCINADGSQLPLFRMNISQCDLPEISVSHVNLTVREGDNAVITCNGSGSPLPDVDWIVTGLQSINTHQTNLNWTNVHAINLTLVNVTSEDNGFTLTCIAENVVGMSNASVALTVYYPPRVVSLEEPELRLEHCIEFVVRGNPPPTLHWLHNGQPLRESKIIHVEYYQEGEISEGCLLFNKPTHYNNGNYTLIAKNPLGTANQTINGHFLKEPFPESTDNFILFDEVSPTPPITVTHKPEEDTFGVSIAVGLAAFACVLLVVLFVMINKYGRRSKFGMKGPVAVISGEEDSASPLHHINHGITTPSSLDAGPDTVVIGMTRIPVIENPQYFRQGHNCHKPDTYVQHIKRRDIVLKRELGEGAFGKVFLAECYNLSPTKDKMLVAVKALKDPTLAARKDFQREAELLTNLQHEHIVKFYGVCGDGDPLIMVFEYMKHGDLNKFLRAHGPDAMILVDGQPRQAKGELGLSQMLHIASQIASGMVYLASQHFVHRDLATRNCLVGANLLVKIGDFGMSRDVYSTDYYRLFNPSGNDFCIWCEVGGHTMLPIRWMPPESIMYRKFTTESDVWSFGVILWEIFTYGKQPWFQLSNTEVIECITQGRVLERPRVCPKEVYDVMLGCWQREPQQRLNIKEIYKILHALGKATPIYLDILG
T3 sequence (P06213 28-1382): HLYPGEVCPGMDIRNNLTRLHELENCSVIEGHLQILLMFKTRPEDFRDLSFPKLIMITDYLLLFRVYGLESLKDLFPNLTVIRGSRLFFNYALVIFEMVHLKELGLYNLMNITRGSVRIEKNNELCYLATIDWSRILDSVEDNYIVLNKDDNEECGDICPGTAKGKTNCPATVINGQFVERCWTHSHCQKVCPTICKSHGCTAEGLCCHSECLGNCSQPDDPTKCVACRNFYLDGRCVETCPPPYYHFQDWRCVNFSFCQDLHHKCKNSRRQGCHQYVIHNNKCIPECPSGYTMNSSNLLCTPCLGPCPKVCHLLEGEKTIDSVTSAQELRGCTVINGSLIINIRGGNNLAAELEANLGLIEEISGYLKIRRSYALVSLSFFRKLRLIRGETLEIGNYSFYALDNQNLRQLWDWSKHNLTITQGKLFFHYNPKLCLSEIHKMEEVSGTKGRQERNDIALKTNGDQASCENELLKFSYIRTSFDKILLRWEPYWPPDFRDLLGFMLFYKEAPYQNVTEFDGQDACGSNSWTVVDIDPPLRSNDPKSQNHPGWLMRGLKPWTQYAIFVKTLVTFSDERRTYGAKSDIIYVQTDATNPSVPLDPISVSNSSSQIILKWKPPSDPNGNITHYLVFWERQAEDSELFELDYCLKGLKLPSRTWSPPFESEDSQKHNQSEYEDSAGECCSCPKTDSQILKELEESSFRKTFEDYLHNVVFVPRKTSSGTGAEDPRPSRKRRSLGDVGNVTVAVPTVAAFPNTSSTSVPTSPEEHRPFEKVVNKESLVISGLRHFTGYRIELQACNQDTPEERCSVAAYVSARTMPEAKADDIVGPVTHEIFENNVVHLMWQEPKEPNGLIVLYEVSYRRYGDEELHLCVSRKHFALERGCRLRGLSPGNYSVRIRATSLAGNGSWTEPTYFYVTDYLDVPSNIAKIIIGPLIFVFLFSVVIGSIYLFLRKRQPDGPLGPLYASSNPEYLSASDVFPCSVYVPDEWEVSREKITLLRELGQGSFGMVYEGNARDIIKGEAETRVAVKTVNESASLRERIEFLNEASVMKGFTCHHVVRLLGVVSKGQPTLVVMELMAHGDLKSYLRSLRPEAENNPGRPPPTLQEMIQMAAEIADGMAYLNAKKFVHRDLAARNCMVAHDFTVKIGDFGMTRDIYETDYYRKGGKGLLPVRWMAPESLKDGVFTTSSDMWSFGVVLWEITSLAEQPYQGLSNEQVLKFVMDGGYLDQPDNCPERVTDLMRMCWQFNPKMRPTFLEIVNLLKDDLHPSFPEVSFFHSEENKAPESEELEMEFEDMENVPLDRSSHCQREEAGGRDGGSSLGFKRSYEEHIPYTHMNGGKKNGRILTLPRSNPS
Trk B, sequence (Q16620 32-822): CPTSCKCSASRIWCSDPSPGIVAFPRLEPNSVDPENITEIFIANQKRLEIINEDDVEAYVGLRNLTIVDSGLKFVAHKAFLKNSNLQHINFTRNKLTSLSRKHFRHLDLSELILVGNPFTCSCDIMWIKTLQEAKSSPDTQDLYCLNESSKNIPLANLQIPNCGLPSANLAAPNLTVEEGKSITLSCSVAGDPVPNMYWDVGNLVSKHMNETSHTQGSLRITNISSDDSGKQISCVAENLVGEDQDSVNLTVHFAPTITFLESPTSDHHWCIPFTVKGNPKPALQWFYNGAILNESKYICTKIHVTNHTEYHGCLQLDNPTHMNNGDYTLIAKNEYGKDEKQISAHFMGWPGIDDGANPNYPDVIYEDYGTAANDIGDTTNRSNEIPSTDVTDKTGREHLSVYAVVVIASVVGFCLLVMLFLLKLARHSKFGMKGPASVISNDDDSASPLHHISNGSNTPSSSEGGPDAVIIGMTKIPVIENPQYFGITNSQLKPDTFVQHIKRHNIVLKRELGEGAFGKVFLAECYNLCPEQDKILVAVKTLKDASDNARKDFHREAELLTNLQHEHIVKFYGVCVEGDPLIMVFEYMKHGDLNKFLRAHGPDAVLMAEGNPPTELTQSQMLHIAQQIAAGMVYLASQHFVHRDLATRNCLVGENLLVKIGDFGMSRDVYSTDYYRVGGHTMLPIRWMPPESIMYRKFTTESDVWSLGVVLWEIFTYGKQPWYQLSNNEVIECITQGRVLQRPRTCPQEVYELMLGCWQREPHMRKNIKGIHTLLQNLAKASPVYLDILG
Trk A, sequence (P04629 33-796): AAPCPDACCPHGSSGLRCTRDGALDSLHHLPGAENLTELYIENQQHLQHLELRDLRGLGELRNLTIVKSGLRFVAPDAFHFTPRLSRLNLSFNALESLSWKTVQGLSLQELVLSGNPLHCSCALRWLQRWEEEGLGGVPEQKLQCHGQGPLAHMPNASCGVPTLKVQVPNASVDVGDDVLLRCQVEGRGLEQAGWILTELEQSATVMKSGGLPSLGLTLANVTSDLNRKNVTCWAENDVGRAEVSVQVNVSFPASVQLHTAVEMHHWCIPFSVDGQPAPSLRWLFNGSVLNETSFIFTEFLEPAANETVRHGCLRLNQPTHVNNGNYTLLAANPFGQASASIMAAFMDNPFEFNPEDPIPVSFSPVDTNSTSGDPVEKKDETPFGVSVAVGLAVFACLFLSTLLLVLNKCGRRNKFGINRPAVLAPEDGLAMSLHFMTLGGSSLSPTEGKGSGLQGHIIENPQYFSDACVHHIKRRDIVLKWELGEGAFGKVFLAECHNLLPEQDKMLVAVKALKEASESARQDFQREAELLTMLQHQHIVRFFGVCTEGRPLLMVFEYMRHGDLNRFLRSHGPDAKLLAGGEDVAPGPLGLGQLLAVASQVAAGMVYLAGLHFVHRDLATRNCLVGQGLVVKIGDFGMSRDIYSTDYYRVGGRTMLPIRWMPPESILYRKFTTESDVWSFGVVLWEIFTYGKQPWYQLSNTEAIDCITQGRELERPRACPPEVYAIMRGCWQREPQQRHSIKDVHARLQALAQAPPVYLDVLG

| inhibition at 0.1 µM (c-Met) [%] | inhibition at 0.1 µM (c-Mer) [%] | inhibition at 0.1 µM (Trk C) [%] | inhibition at 0.1 µM (AXL) [%] | inhibition at 0.1 µM (Trk A) [%] | inhibition at 1 µM (IR) [%] | inhibition at 0.1 µM (Trk B) [%] | inhibition at 1 µM (IGF-1R) [%] | % Enzyme Inhibition @ 100 nM Trk A (Trk A) | % Enzyme Inhibition @ 100 nM Trk B (Trk B) | % Enzyme Inhibition @ 100 nM Trk C (Trk C) | SMILES |
| --- | --- | --- | --- | --- | --- | --- | --- | --- | --- | --- | --- |
| – | – | > 60 | – | > 60 | ≤ 40 | > 60 | < 35 | – | – | – | O=C(C1CCCN1c1nc2c(c(Nc3cc(C4CCCC4)[nH]n3)n1)CCC2)N1CCCC1 (stereo not shown) [Compound 112a, (1-(4-(5-cyclopentyl-1H-pyrazol-3-ylamino)-6,7-dihydro-5H-cyclopenta[d]pyrimidin-2-yl)pyrrolidin-2-yl)(pyrrolidin-1-yl)methanone] |
| – | – | – | – | – | ≤ 40 | – | < 35 | ++ (Medium (40 to 59% inhibition, ++)) | ++ (Medium (40 to 59% inhibition, ++)) | ++ (Medium (40 to 59% inhibition, ++)) | CN(C)C(=O)C1CCCN1c1nc2c(c(Nc3cc(C4CCCCC4)[nH]n3)n1)CCC2 (stereo not shown) [Compound 114a, 1-(4-(5-cyclohexyl-1H-pyrazol-3-ylamino)-6,7-dihydro-5H-cyclopenta[d]pyrimidin-2-yl)-N,N-dimethylpyrrolidine-2-carboxamide] |
| – | – | > 60 | – | < 39 | ≤ 40 | > 60 | < 35 | – | – | – | CN(C)C(=O)C1CCCN1c1nc2c(c(Nc3cc(C4CCCC4)[nH]n3)n1)CCC2 (stereo not shown) [Compound 115a, 1-(4-(5-cyclopentyl-1H-pyrazol-3-ylamino)-6,7-dihydro-5H-cyclopenta[d]pyrimidin-2-yl)-N,N-dimethylpyrrolidine-2-carboxamide] |
| – | – | > 60 | – | < 39 | ≤ 40 | > 60 | < 35 | – | – | – | CCN(CC)C(=O)C1CCCN1c1nc2c(c(Nc3cc(C4CCCC4)[nH]n3)n1)CCC2 (stereo not shown) [Compound 116a, 1-(4-(5-cyclopenxyl-1H-pyrazol-3-ylamino)-6,7-dihydro-5H-cyclopenta[d]pyrimidin-2-yl)-N,N-diethylpyrrolidine-2-carboxamide] |

Further lines, the compound ahead of its results:

| SMILES | inhibition at 0.1 µM (c-Met) [%] | inhibition at 0.1 µM (c-Mer) [%] | inhibition at 0.1 µM (Trk C) [%] | inhibition at 0.1 µM (AXL) [%] | inhibition at 0.1 µM (Trk A) [%] | inhibition at 1 µM (IR) [%] | inhibition at 0.1 µM (Trk B) [%] | inhibition at 1 µM (IGF-1R) [%] | % Enzyme Inhibition @ 100 nM Trk A (Trk A) | % Enzyme Inhibition @ 100 nM Trk B (Trk B) | % Enzyme Inhibition @ 100 nM Trk C (Trk C) |
| --- | --- | --- | --- | --- | --- | --- | --- | --- | --- | --- | --- |
| O=C(Nc1ccc(F)nc1)C1CCCN1c1nc2c(c(Nc3ccc(=O)[nH]n3)n1)CCC2 (stereo not shown) [Compound 101b, N-(6-fluoropyridin-3-yl)-1-(4-(6-oxo-1,6-dihydropyridazin-3-ylamino)-6,7-dihydro-5H-cyclopenta[d]pyrimidin-2-yl)pyrrolidine-2-carboxamide] | < 39 | < 39 | < 39 | < 39 | – | – | – | – | – | – | – |
| O=C(Nc1ccc(F)nc1)C1CCCN1c1nc2c(c(Nc3ccccn3)n1)CCC2 (stereo not shown) [Compound 102a, N-(6-fluoropyridin-3-yl)-1-(4-(pyridin-2-ylamino)-6,7-dihydro-5H-cyclopenta[d]pyrimidin-2-yl)pyrrolidine-2-carboxamide] | < 39 | < 39 | < 39 | < 39 | – | – | – | – | – | – | – |
| O=C(Nc1nccs1)C1CCCN1c1nc2c(c(Nc3ncccn3)n1)CCC2 (stereo not shown) [Compound 105a, 1-(4-(pyrimidin-2-ylamino)-6,7-dihydro-5H-cyclopenta[d]pyrimidin-2-yl)-N-(thiazol-2-yl)pyrrolidine-2-carboxamide] | < 39 | < 39 | < 39 | < 39 | – | – | – | – | – | – | – |
| O=C(C1CCCN1c1nc2c(c(Nc3cc(C4CCCCC4)[nH]n3)n1)CCC2)N1CCCCC1 (stereo not shown) [Compound 113a, (1-(4-(5-cyclohexyl-1H-pyrazol-3-ylamino)-6,7-dihydro-5H-cyclopenta[d]pyrimidin-2-yl)pyrrolidin-2-yl)(piperidin-1-yl)methanone] | – | – | – | – | – | ≤ 40 | – | < 35 | ++ (Medium (40 to 59% inhibition, ++)) | + (Low (39% or lower inhibition, +)) | ++ (Medium (40 to 59% inhibition, ++)) |
